Results as given in patent publication US20150175585A1, “FUSED QUINONIC COMPOUNDS” (CENTRO ATLANTICO DEL MEDICAMENTO S.A (CEAMED, S.A.), priority 2012, published 2015).

Tests used:
K562 tumors = test: In vivo efficacy, K562 tumor xenografts in NOD-SCID mice; settings: 10 mg/kg i.p. daily except Saturdays and Sundays, 25 day study; P=0.004 day 4, P=0.007 day 25
From the text: Mice were sacrificed when their tumor diameters reached 2 cm, or when they became moribund.

STAT3 = test: IL-6 induced STAT3 phosphorylation in T47D cells (Western immunoblotting); assay type: cell-based, human; settings: serum deprived T47D cells; 5 μM for 0.5-3 h or 0.5-10 μM; IL-6 25 ng/ml 30 min
Method: FIG. 2. • Overnight serum deprived T47D cells were stimulated with IL-6 (25 ng/ml) for 3, 5, 10, 20, 30, 45 and 60 min. JAK2, pYJAK2, STAT3 and pYSTAT3 were detected using Western immunoblotting as described in methods. B) Overnight serum derived T47D cells were pre-incubated with compound 4 (C4) (5 μM) for 0.5, 1, 2, and 3 h and stimulated with 25 ng/ml for 30 min. JAK2, pYJAK2, STAT3 and pYSTAT3 were detected using Western immunoblotting as described in methods. C) Overnight serum derived T47D cells were preincubated with C4 at increasing concentrations (0.5-10 μM) for 3 h and stimulated with 25 ng/ml IL-6 for 30 min. JAK2, pJAK2, STAT5 and pSTAT5 were detected using Western immunoblotting as described above. Equal protein loading was confirmed using a specific human anti-β-actin antibody. C—Veh: T47D cells exposed to C4 and IL-6 vehicle (0.1% DMSO and PBS, respectively) for the indicated times. C+: T47D cells exposed to C4 vehicle (0.1% DMSO) and stimulated with IL-6 (25 ng/ml) for the indicated time.
T47D cells were routinely maintained in 75-cm^2 culture flasks with vented caps at 37° C., 5% CO2 in RPMI 1640 growth media without phenol red supplemented with 10% FBS, 2 mM L-glutamine, 10 mM HEPES, 50 U/ml penicillin/50 U/ml streptomycin, and 0.3 mg/ml gentamicin. […]

N#Cc1ccc(C2C3=C(CCCC3=O)OC3=C2C(=O)c2ccccc2C3=O)cc1 (centres unmarked) [Compound 4, 4-(1,6,11-trioxo-2,3,4,6,11,12-hexahydro-1H-benzo[b]xanthen-12-yl)benzonitrile]
tumor growth (tumor volume) compared to control group (K562 tumors): pronounced, and statistically significant reduction | IL-6-induced STAT3 phosphorylation (STAT3): inhibits, in a time/dose dependent manner
